EPA's ToxRefDB 2

Legend:
rat [1] = details: Prenatal developmental toxicity study, sprague dawley, Oral, Gavage/Intubation, dose end: 17 GD, group: maternal
dog [2] = details: Chronic toxicity; beagle; Oral; Capsule; dose end: 1 year; group: systemic; systemic / in life observation / body weight / body weight + systemic / in life observation / clinical signs / vomitting + systemic / in …
mouse [3] = details: Sub-acute repeat dose toxicity, cd1, Oral, Gavage/Intubation, dose end: 4 week, group: systemic
rat [4] = details: Prenatal developmental toxicity study, sprague dawley, Oral, Gavage/Intubation, dose end: 17 GD
rat [5] = details: Fertility (Segment I), sprague dawley, Oral, Gavage/Intubation, dose end: 7 GD
rat [6] = details: Sub-acute repeat dose toxicity; Oral; Gavage/Intubation; dose end: 7 day; group: systemic; systemic / pathology microscopic / kidney / hyaline droplet + systemic / pathology microscopic / kidney / regeneration + systemic / …
rabbit [7] = details: Prenatal developmental toxicity study, Oral, Gavage/Intubation, dose end: 19 GD
mouse [8] = details: Sub-acute repeat dose toxicity, Oral, Gavage/Intubation, dose end: 7 day, group: systemic
dog [9] = details: Sub-acute repeat dose toxicity, beagle, Oral, Gavage/Intubation, dose end: 7 day, group: systemic
rat [10] = details: Sub-acute repeat dose toxicity; Oral; Gavage/Intubation; dose end: 7 day; group: systemic; systemic / clinical chemistry / globulins / globulins + systemic / clinical chemistry / bilirubin / total bilirubin + systemic / organ …
rabbit [11] = details: Sub-acute repeat dose toxicity, Oral, Gavage/Intubation, dose end: 7 day, group: systemic
rat [12] = details: Sub-acute repeat dose toxicity; Oral; Feed; dose end: 14 day; group: systemic; systemic / in life observation / clinical signs / defecation + systemic / in life observation / clinical signs / hunched posture + systemic…
rat [13] = details: Sub-acute repeat dose toxicity; Injection; Intravenous; dose end: 7 day; group: systemic; systemic / hematology / platelet / platelet + systemic / organ weight / liver / absolute + systemic / pathology microscopic / liver / …
mouse [14] = details: Chronic toxicity, Oral, Gavage/Intubation, dose end: 186 day, group: systemic
dog [15] = details: Subchronic oral toxicity in nonrodent, beagle, Gavage/Intubation, dose end: 90 day, group: systemic
rat [16] = details: Sub-acute repeat dose toxicity; Oral; Gavage/Intubation; dose end: 7 day; group: systemic; systemic / clinical chemistry / cholesterol / cholesterol + systemic / clinical chemistry / gamma glutamyl transferase (ggt) / gamma …
mouse [17] = details: Sub-acute repeat dose toxicity, Oral, Gavage/Intubation, dose end: 7 day, group: systemic; remark: listed apart in the source
mouse [18] = details: Fertility (Segment I), Oral, Gavage/Intubation, dose end: 1 generation
[19] = reproductive / reproductive performance / implantations / implantations + reproductive / reproductive performance / postimplantation loss / …
[20] = systemic / in life observation / body weight / body weight + systemic / in life observation / body weight / body weight gain + systemic / in…
[21] = systemic / in life observation / clinical signs / alopecia + systemic / in life observation / clinical signs / scabbing + systemic / organ …
[22] = systemic / organ weight / liver / absolute + systemic / organ weight / liver / relative to body weight + systemic / pathology gross / lung…
[23] = group: developmental, systemic / in life observation / body weight / fetal weight
[24] = group: maternal, reproductive / reproductive performance / implantations / implantations + reproductive / reproductive performance / postimplantation loss / …
[25] = group: maternal, systemic / in life observation / body weight / body weight + systemic / in life observation / clinical signs / piloerection + systemic / in …
[26] = group: maternal, reproductive / offspring survival early / litter viability other / total litter loss + reproductive / reproductive performance / estrous …
[27] = group: maternal, reproductive / reproductive performance / fertility / fertility + reproductive / reproductive performance / precoital interval / precoital …
[28] = group: parental, systemic / in life observation / clinical signs / alopecia + systemic / in life observation / body weight / body weight gain + systemic / in…
[29] = systemic / clinical chemistry / creatinine / creatinine + systemic / clinical chemistry / potassium / potassium + systemic / in life …
[30] = systemic / organ weight / liver / absolute
[31] = systemic / clinical chemistry / alanine aminotransferase (alt/sgpt) / alanine aminotransferase (alt/sgpt) + systemic / pathology microscopic…
[32] = systemic / clinical chemistry / alkaline phosphatase (alp/alk) / alkaline phosphatase (alp/alk) + systemic / clinical chemistry / …
[33] = systemic / in life observation / body weight / body weight + systemic / in life observation / clinical signs / tachypnea + systemic / in …
[34] = systemic / clinical chemistry / bilirubin / total bilirubin + systemic / in life observation / body weight / body weight + systemic / organ …
[35] = systemic / clinical chemistry / alanine aminotransferase (alt/sgpt) / alanine aminotransferase (alt/sgpt) + systemic / clinical chemistry / …
[36] = systemic / clinical chemistry / alkaline phosphatase (alp/alk) / alkaline phosphatase (alp/alk)
[37] = systemic / clinical chemistry / cholesterol / cholesterol + systemic / pathology microscopic / liver / vacuolization + systemic / clinical …
[38] = group: maternal, reproductive / reproductive performance / mating / mating + reproductive / reproductive performance / precoital interval / precoital …
[39] = group: parental, systemic / in life observation / body weight / body weight gain + systemic / in life observation / food consumption / food consumption + …

Structure (SMILES): CCc1c(C(=O)NN2CCCCC2)nn(-c2ccc(Cl)cc2Cl)c1-c1ccc(Br)cc1 [Surinabant]
- LOAEL (rat [1]; [19]): > 100 mg/kg/day
- NOAEL (rat [1]; [19]): ≥ 100 mg/kg/day
- LEL (rat [1]; [20]): 10 mg/kg/day
- NEL (rat [1]; [20]): < 10 mg/kg/day
- LEL (dog [2]): 1 mg/kg/day
- LOAEL (dog [2]): 1 mg/kg/day
- NEL (dog [2]): < 1 mg/kg/day
- NOAEL (dog [2]): < 1 mg/kg/day
- LOAEL (mouse [3]; [21]): > 4000 mg/kg/day
- NOAEL (mouse [3]; [21]): ≥ 4000 mg/kg/day
- LEL (mouse [3]; [22]): 1000 mg/kg/day
- NEL (mouse [3]; [22]): < 1000 mg/kg/day
- LEL (rat [4]; [23]): 100 mg/kg/day
- LOAEL (rat [4]; [23]): 100 mg/kg/day
- NEL (rat [4]; [23]): 10 mg/kg/day
- NOAEL (rat [4]; [23]): 10 mg/kg/day
- LOAEL (rat [4]; [24]): 100 mg/kg/day
- NOAEL (rat [4]; [24]): 10 mg/kg/day
- LEL (rat [4]; [25]): 10 mg/kg/day
- NEL (rat [4]; [25]): < 10 mg/kg/day
- LOAEL (rat [5]; [26]): > 1000 mg/kg/day
- NOAEL (rat [5]; [26]): ≥ 1000 mg/kg/day
- LEL (rat [5]; [27]): 10 mg/kg/day
- NEL (rat [5]; [27]): < 10 mg/kg/day
- LEL (rat [5]; [28]): 10 mg/kg/day
- LOAEL (rat [5]; [28]): > 1000 mg/kg/day
- NEL (rat [5]; [28]): < 10 mg/kg/day
- NOAEL (rat [5]; [28]): ≥ 1000 mg/kg/day

Structure (SMILES): CCc1nn(CCO)c(CC)c1Oc1cc(C#N)cc(C#N)c1 [Lersivirine]
- LEL (rat [6]): 23 mg/kg/day
- LOAEL (rat [6]): > 100 mg/kg/day
- NEL (rat [6]): < 23 mg/kg/day
- NOAEL (rat [6]): ≥ 100 mg/kg/day
- NEL (rabbit [7]; group: developmental, developmental / developmental malformation / bone / absent + developmental / developmental malformation / bone / fused): 250 mg/kg/day
- NEL (rabbit [7]; group: maternal, reproductive / reproductive performance / postimplantation loss / postimplantation loss): < 100 mg/kg/day
- LOAEL (mouse [8]; [29]): > 750 mg/kg/day
- NOAEL (mouse [8]; [29]): ≥ 750 mg/kg/day
- LEL (mouse [8]; [30]): 70 mg/kg/day
- NEL (mouse [8]; [30]): < 70 mg/kg/day
- LOAEL (dog [9]; [31]): > 150 mg/kg/day
- NOAEL (dog [9]; [31]): ≥ 150 mg/kg/day
- LEL (dog [9]; [32]): 10 mg/kg/day
- NEL (dog [9]; [32]): < 10 mg/kg/day
- LOAEL (rat [10]): > 150 mg/kg/day
- NEL (rat [10]): < 150 mg/kg/day
- NOAEL (rat [10]): ≥ 150 mg/kg/day
- LOAEL (rabbit [11]; [33]): > 500 mg/kg/day
- NEL (rabbit [11]; [33]): 20 mg/kg/day
- NOAEL (rabbit [11]; [33]): ≥ 500 mg/kg/day
- LEL (rabbit [11]; systemic / in life observation / clinical signs / tachypnea + systemic / in life observation / food consumption / food consumption): 200 mg/kg/day
- LOAEL (rat [12]): > 1500 mg/kg/day
- NEL (rat [12]): 750 mg/kg/day
- NOAEL (rat [12]): ≥ 1500 mg/kg/day
- LOAEL (rat [13]): > 35 mg/kg/day
- NEL (rat [13]): < 35 mg/kg/day
- NOAEL (rat [13]): ≥ 35 mg/kg/day
- LEL (mouse [14]; [32]): 70 mg/kg/day
- NEL (mouse [14]; [32]): < 70 mg/kg/day
- LOAEL (mouse [14]; [34]): > 700 mg/kg/day
- NOAEL (mouse [14]; [34]): ≥ 700 mg/kg/day
- LOAEL (dog [15]; [35]): > 60 mg/kg/day
- NOAEL (dog [15]; [35]): ≥ 60 mg/kg/day
- LEL (dog [15]; [36]): 7 mg/kg/day
- NEL (dog [15]; [36]): < 7 mg/kg/day
- LOAEL (rat [16]): > 35 mg/kg/day
- NEL (rat [16]): < 35 mg/kg/day
- NOAEL (rat [16]): ≥ 35 mg/kg/day
- LOAEL (mouse [17]; [37]): > 250 mg/kg/day
- NOAEL (mouse [17]; [37]): ≥ 250 mg/kg/day
- NEL (mouse [17]; systemic / organ weight / liver / absolute + systemic / pathology microscopic / liver / hypertrophy): < 35 mg/kg/day
- LEL (mouse [18]; [38]): 700 mg/kg/day
- LOAEL (mouse [18]; [38]): > 700 mg/kg/day
- NEL (mouse [18]; [38]): 200 mg/kg/day
- NOAEL (mouse [18]; [38]): ≥ 700 mg/kg/day
- LEL (mouse [18]; [39]): 700 mg/kg/day
- LOAEL (mouse [18]; [39]): > 700 mg/kg/day
- NEL (mouse [18]; [39]): 200 mg/kg/day
- NOAEL (mouse [18]; [39]): ≥ 700 mg/kg/day
